{"source": "patent US7452688B2", "about": "“Transformed cell with enhanced sensitivity to antifungal compound and use thereof” (Sumitomo Chemical Company, Limited, priority 2002, dated 2008)", "type_in_all_cases": "cell-based, Saccharomyces cerevisiae", "key": {"[1]": {"system": "transformed budding yeast TM182-StOS1", "experiment": "Antifungal compound sensitivity test of transformed budding yeast TM182-StOS1 (Example 16)", "settings": "for Degree of growth of budding yeast TM182-StOS1 Gal-Ura-Leu medium: control medium, 30° C. 49.5 hours; for Degree of growth of budding yeast TM182-StOS1 Gul-Ura-Leu medium: 30° C. 26.5 hours", "protocol": "(§1) Similarly, the transformed budding yeast TM182-StOS1 prepared in Example 15 was cultured at 30° C. for 18 hours in a Glu-Ura-Leu medium. The absorbance at 600 nm of the grown transformed budding yeast in a cell suspension was measured, and a cell suspension diluted with sterilized distilled water to the absorbance of 0.1 was prepared. Further, a cell suspension in which the transformed budding yeast TM182-StOS1 was diluted 50-fold with a Glu-Ura-Leu medium and, as a control, a cell suspension in which the yeast was diluted 50-fold with a Gal-Ura-Leu medium were prepared.\n(§2) A solution in which each of Compounds (1) to (3) was dissolved in dimethylsulfoxide (DMSO) to the concentration of 6 ppm, a solution in which each of Compounds (4) and (5) was dissolved in dimethylsulfoxide (DMSO) to the concentration of 2000 ppm, and a solution in which each of Compounds (6) and (7) was dissolved in dimethylsulfoxide (DMSO) to the concentration of 20 ppm were prepared, and two microplates were prepared in which each 2.0 μL per well of the Compound-DMSO solution and DMSO as a control were dispensed into 2 wells. In one microplate among them, each 100 μL of cell suspensions of the transformed budding yeast TM182-StOS1 which had been prepared by dilution with a Glu-Ura-Leu medium as described above was dispensed, and cultured by allowing to stand at 30° C. for 26.5 hours. In another microplate, as described above, as a control, each 100 μL of cell suspensions of the transformed budding yeast TM182-StOS1 which had been prepared by dilution with a Gal-Ura-Leu medium was dispensed, and cultured at 30° C. for 49.5 hours. After culturing, the absorbance at 600 nm of each well was measured with a microplate reader.\n(§3) A degree of growth of the transformed budding yeast is expressed as a relative value in percentage, letting the absorbance at 600 nm at the concentration of the Compound of 0 ppm to be 100. It was confirmed that an inhibiting degree of growth of the transformed budding yeast TM182-StOS1 by each test substance was grater than an inhibiting degree of growth of the transformed budding yeast AH22-StOS1 by each test substance, and the transformed budding yeast TM182-StOS1 was a transformed cell with the enhanced sensitivity to an antifungal compound as compared with the transformed budding yeast AH22-StOS1."}, "AH22": {"system": "AH22", "experiment": "Antifungal compound sensitivity test, control yeast AH22 (Example 6, Table 2)", "settings": "absorbance at 600 nm relative to 0 ppm = 100", "excerpt": "Degrees of growths of both of the transformed budding yeasts cultured under the presence of Compounds (1) to (7) and budding yeast as a control therefor are shown in Table 2. Degrees of growths of both of the transformed budding yeasts and budding yeast as a control are expressed by a relative value in percentage, letting the absorbance at 600 nm at the concentration of the Compound of 0 ppm to be 100. It was confirmed that an inhibiting degree of growth of the transformed budding yeast TM182-BcOS1-I 365S by each test substance was grater than an inhibiting degree of growth of the transformed budding yeast AH22-BcOS1-I 365S by each test substance, and the transformed budding yeast TM182-BcOS1-I365S was a transformed cell with the enhanced sensitivity to an antifungal compound as compared with the transformed budding yeast AH22-BcOS1-I365S."}, "[2]": {"system": "transformed budding yeast TM182-FoOS1", "experiment": "Antifungal compound sensitivity test of transformed budding yeast TM182-FoOS1 (Example 13)", "settings": "for Degree of growth of budding yeast TM182-FoOS1 Gal-Ura-Leu medium: control medium, 30° C. 51 hours; for Degree of growth of budding yeast TM182-FoOS1 Gul-Ura-Leu medium: 30° C. 25 hours", "protocol": "as §1, with “TM182-FoOS1” for “TM182-StOS1”, “12” for “15”\nas §2, with “of 600” for “of 6”, “Compounds […]” for “Compounds (4)”, “yeast TM182-FoOS1” for “yeast TM182-StOS1”, “for 25” for “for 26.5”, “for 51” for “for 49.5”\nas §3, with “TM182-FoOS1” for “TM182-StOS1”, “AH22-FoOS1” for “AH22-StOS1”, “AH22-FoOS1.” for “AH22-StOS1.”"}}, "data": [{"smiles": "CC12CC1(C)C(=O)N(c1cc(Cl)cc(Cl)c1)C2=O", "note": "(centres unmarked) [Compound (1), Procymidone]", "values": [{"measurement": "Degree of growth of budding yeast TM182-StOS1 Gal-Ura-Leu medium", "setting": "[1]; final concentration 0.6 ppm", "value": 101, "unit": "%"}, {"measurement": "Degree of growth of budding yeast TM182-StOS1 Gul-Ura-Leu medium", "setting": "[1]; final concentration 0.6 ppm", "value": 67, "unit": "%"}, {"measurement": "Degree of growth of budding yeast (%) AH22 Glu medium", "setting": "AH22; final concentration 6 ppm", "value": 88, "unit": "%"}, {"measurement": "Degree of growth of budding yeast TM182-FoOS1 Gal-Ura-Leu medium", "setting": "[2]; final concentration 6 ppm", "value": 116, "unit": "%"}, {"measurement": "Degree of growth of budding yeast TM182-FoOS1 Gul-Ura-Leu medium", "setting": "[2]; final concentration 6 ppm", "value": 26, "unit": "%"}]}, {"smiles": "CC(C)NC(=O)N1CC(=O)N(c2cc(Cl)cc(Cl)c2)C1=O", "note": "[Compound (2), Iprodione]", "values": [{"measurement": "Degree of growth of budding yeast TM182-StOS1 Gal-Ura-Leu medium", "setting": "[1]; final concentration 0.6 ppm", "value": 97, "unit": "%"}, {"measurement": "Degree of growth of budding yeast TM182-StOS1 Gul-Ura-Leu medium", "setting": "[1]; final concentration 0.6 ppm", "value": 23, "unit": "%"}, {"measurement": "Degree of growth of budding yeast (%) AH22 Glu medium", "setting": "AH22; final concentration 6 ppm", "value": 91, "unit": "%"}, {"measurement": "Degree of growth of budding yeast TM182-FoOS1 Gal-Ura-Leu medium", "setting": "[2]; final concentration 6 ppm", "value": 87, "unit": "%"}, {"measurement": "Degree of growth of budding yeast TM182-FoOS1 Gul-Ura-Leu medium", "setting": "[2]; final concentration 6 ppm", "value": 55, "unit": "%"}]}, {"smiles": "C=CC1(C)OC(=O)N(c2cc(Cl)cc(Cl)c2)C1=O", "note": "(centres unmarked) [Compound (3), Vinclozolin]", "values": [{"measurement": "Degree of growth of budding yeast TM182-StOS1 Gal-Ura-Leu medium", "setting": "[1]; final concentration 0.6 ppm", "value": 94, "unit": "%"}, {"measurement": "Degree of growth of budding yeast TM182-StOS1 Gul-Ura-Leu medium", "setting": "[1]; final concentration 0.6 ppm", "value": 19, "unit": "%"}, {"measurement": "Degree of growth of budding yeast (%) AH22 Glu medium", "setting": "AH22; final concentration 6 ppm", "value": 87, "unit": "%"}, {"measurement": "Degree of growth of budding yeast TM182-FoOS1 Gal-Ura-Leu medium", "setting": "[2]; final concentration 6 ppm", "value": 99, "unit": "%"}, {"measurement": "Degree of growth of budding yeast TM182-FoOS1 Gul-Ura-Leu medium", "setting": "[2]; final concentration 6 ppm", "value": 22, "unit": "%"}]}, {"smiles": "O=[N+]([O-])c1c(Cl)c(Cl)c(Cl)c(Cl)c1Cl", "note": "[Compound (4), Quintozene]", "values": [{"measurement": "Degree of growth of budding yeast TM182-StOS1 Gal-Ura-Leu medium", "setting": "[1]; final concentration 20 ppm", "value": 99, "unit": "%"}, {"measurement": "Degree of growth of budding yeast TM182-StOS1 Gul-Ura-Leu medium", "setting": "[1]; final concentration 20 ppm", "value": 7, "unit": "%"}, {"measurement": "Degree of growth of budding yeast (%) AH22 Glu medium", "setting": "AH22; final concentration 20 ppm", "value": 96, "unit": "%"}, {"measurement": "Degree of growth of budding yeast TM182-FoOS1 Gal-Ura-Leu medium", "setting": "[2]; final concentration 20 ppm", "value": 104, "unit": "%"}, {"measurement": "Degree of growth of budding yeast TM182-FoOS1 Gul-Ura-Leu medium", "setting": "[2]; final concentration 20 ppm", "value": 20, "unit": "%"}]}, {"smiles": "COP(=S)(OC)Oc1c(Cl)cc(C)cc1Cl", "note": "[Compound (5), Tolclofos-methyl]", "values": [{"measurement": "Degree of growth of budding yeast TM182-StOS1 Gal-Ura-Leu medium", "setting": "[1]; final concentration 20 ppm", "value": 74, "unit": "%"}, {"measurement": "Degree of growth of budding yeast TM182-StOS1 Gul-Ura-Leu medium", "setting": "[1]; final concentration 20 ppm", "value": 6, "unit": "%"}, {"measurement": "Degree of growth of budding yeast (%) AH22 Glu medium", "setting": "AH22; final concentration 20 ppm", "value": 80, "unit": "%"}, {"measurement": "Degree of growth of budding yeast TM182-FoOS1 Gal-Ura-Leu medium", "setting": "[2]; final concentration 20 ppm", "value": 80, "unit": "%"}, {"measurement": "Degree of growth of budding yeast TM182-FoOS1 Gul-Ura-Leu medium", "setting": "[2]; final concentration 20 ppm", "value": 57, "unit": "%"}]}, {"smiles": "N#Cc1c[nH]cc1-c1cccc2c1OC(F)(F)O2", "note": "[Compound (6), Fludioxonil]", "values": [{"measurement": "Degree of growth of budding yeast TM182-StOS1 Gal-Ura-Leu medium", "setting": "[1]; final concentration 0.2 ppm", "value": 97, "unit": "%"}, {"measurement": "Degree of growth of budding yeast TM182-StOS1 Gul-Ura-Leu medium", "setting": "[1]; final concentration 0.2 ppm", "value": 6, "unit": "%"}, {"measurement": "Degree of growth of budding yeast (%) AH22 Glu medium", "setting": "AH22; final concentration 0.2 ppm", "value": 92, "unit": "%"}, {"measurement": "Degree of growth of budding yeast TM182-FoOS1 Gal-Ura-Leu medium", "setting": "[2]; final concentration 0.2 ppm", "value": 99, "unit": "%"}, {"measurement": "Degree of growth of budding yeast TM182-FoOS1 Gul-Ura-Leu medium", "setting": "[2]; final concentration 0.2 ppm", "value": 7, "unit": "%"}]}, {"smiles": "N#Cc1c[nH]cc1-c1cccc(Cl)c1Cl", "note": "[Compound (7), Fenpiclonil]", "values": [{"measurement": "Degree of growth of budding yeast TM182-StOS1 Gal-Ura-Leu medium", "setting": "[1]; final concentration 0.2 ppm", "value": 91, "unit": "%"}, {"measurement": "Degree of growth of budding yeast TM182-StOS1 Gul-Ura-Leu medium", "setting": "[1]; final concentration 0.2 ppm", "value": 9, "unit": "%"}, {"measurement": "Degree of growth of budding yeast (%) AH22 Glu medium", "setting": "AH22; final concentration 0.2 ppm", "value": 91, "unit": "%"}, {"measurement": "Degree of growth of budding yeast TM182-FoOS1 Gal-Ura-Leu medium", "setting": "[2]; final concentration 0.2 ppm", "value": 89, "unit": "%"}, {"measurement": "Degree of growth of budding yeast TM182-FoOS1 Gul-Ura-Leu medium", "setting": "[2]; final concentration 0.2 ppm", "value": 21, "unit": "%"}]}]}
